The values below come from patent publication US20260226068A1, “IMIDAZOTRIAZINE IL-17A MODULATORS AND USES THEREOF” (DICE ALPHA, INC., priority 2023, published 2026).

One assay concerns the target T1, IL-17A/A (Homo sapiens, UniProt Q16552).
T1 construct: purchased Genscript Z03228
T1 sequence (Q16552 24-155): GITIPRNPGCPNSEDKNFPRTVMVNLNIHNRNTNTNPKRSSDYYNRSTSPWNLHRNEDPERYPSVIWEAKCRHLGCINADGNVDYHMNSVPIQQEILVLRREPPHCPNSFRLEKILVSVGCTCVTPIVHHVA
As to the kind of experiment: IL-17A/A HEK-Blue cell assay (SEAP reporter). It counts as cell-based. The conditions noted are these: HEK-Blue IL-17A reporter cells, IL17A/A 5 ng/mL, 20 hours, SEAP read at A630; read-out: HEK-Blue IL17AA (IC50 for IL-17A/A inhibition).

The target of a further assay is T2, IL-17A/F (Homo sapiens, UniProt Q16552+Q96PD4).
T2 construct: purchased R&D Systems
T2 sequence (Q16552 24-155): T1 sequence (Q16552 24-155)
T2 sequence (Q96PD4 31-163): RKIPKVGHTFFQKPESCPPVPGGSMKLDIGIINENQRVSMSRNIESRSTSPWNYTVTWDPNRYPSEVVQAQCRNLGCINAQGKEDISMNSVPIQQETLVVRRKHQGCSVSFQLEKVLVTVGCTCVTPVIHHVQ
As to the kind of experiment: IL-17A/F HEK-Blue cell assay (SEAP reporter). The assay is classed as cell-based. The following applies: HEK-Blue IL-17A reporter cells, IL17A/F 5 ng/mL, 20 hours, SEAP read at A630; read-out: HEK-Blue IL17AF (IC50 for IL-17A/F inhibition).

In the case of `O=C(N[C@H](c1cn2nc(C[C@H]3C[C@@H](C(F)(F)F)CNC3=O)c(C3CCOCC3)nc2n1)C1CCC(F)(F)CC1)c1conc1C1CC1(F)F` (single isomer, unassigned) [Compound 144], the IC50 is less than 0.1 µM on IL-17A/A and 0.1 to 1 µM at IL-17A/F.
For `O=C(N[C@H](c1cn2nc(C[C@H]3C[C@@H](C(F)(F)F)CNC3=O)c(C3CCOCC3)nc2n1)C1CCC(F)(F)CC1)c1conc1C1CC1(F)F` (single isomer, unassigned) [Compound 145] the same measures were less than 0.1 µM and 0.1 to 1 µM.
Take `CCn1nccc1C(=O)N[C@@H](COC(C)(C)C(F)(F)F)c1cn2nc(C[C@H]3C[C@@H](C(F)(F)F)CNC3=O)c(C3CCOCC3)nc2n1` (single isomer, unassigned) [Compound 159]: the IC50 on IL-17A/A was less than 0.1 µM; on IL-17A/F, more than 1 µM.
For the compound `CCn1nccc1C(=O)N[C@@H](CCC(C)(C)C(F)(F)F)c1cn2nc(C[C@H]3C[C@@H](C(F)(F)F)CNC3=O)c(C3CCOCC3)nc2n1` (single isomer, unassigned) [Compound 160], the IC50 was less than 0.1 µM on IL-17A/A and 0.1 to 1 µM at IL-17A/F.
For `CCn1nccc1C(=O)N[C@H](c1cn2nc(C[C@H]3C[C@@H](C(F)(F)F)CNC3=O)c(C3CCOC(C)(C)C3)nc2n1)C1CCC(F)(F)CC1` (single isomer, unassigned) [Compound 163], in that order: less than 0.1 µM and 0.1 to 1 µM.
For `CCn1nccc1C(=O)N[C@H](c1cn2nc(C[C@H]3C[C@@H](C(F)(F)F)CNC3=O)c(C3(C)CCCOC3)nc2n1)C1CCC(F)(F)CC1` (single isomer, unassigned) [Compound 165], in that order: less than 0.1 µM and 0.1 to 1 µM.
For the compound `CCn1nccc1C(=O)N[C@H](c1cn2nc(C[C@H]3C[C@@H](C(F)(F)F)CNC3=O)c(C3(C)CCOC3)nc2n1)C1CCC(F)(F)CC1` (single isomer, unassigned) [Compound 166], the IC50 at IL-17A/A was less than 0.1 µM; on IL-17A/F, 0.1 to 1 µM.
For `CCn1nccc1C(=O)N[C@H](c1cn2nc(C[C@H]3C[C@@H](C(F)(F)F)CNC3=O)c(C(C)C(F)(F)F)nc2n1)C1CCC(F)(F)CC1` (single isomer, unassigned) [Compound 174], in that order: less than 0.1 µM and 0.1 to 1 µM.
For `CCn1nccc1C(=O)N[C@H](c1cn2nc(C[C@H]3C[C@@H](C(F)(F)F)CNC3=O)c(C(C)C(F)(F)F)nc2n1)C1CCC(F)(F)CC1` (single isomer, unassigned) [Compound 175], in that order: less than 0.1 µM and 0.1 to 1 µM.
With `CCn1nccc1C(=O)N[C@H](c1cn2nc(C[C@H]3C[C@@H](C(F)(F)F)CNC3=O)c(C3CCOC(C)(C)C3)nc2n1)C1CCC(F)(F)CC1` (single isomer, unassigned) [Compound 176], the IC50 at IL-17A/A and on IL-17A/F was less than 0.1 µM throughout.
`CCn1nccc1C(=O)N[C@H](c1cn2nc(C[C@H]3C[C@@H](C(F)(F)F)CNC3=O)c(C3(C)CCCOC3)nc2n1)C1CCC(F)(F)CC1` (single isomer, unassigned) [Compound 177]: the IC50 is less than 0.1 µM on IL-17A/A and 0.1 to 1 µM at IL-17A/F.
For `CCn1nccc1C(=O)N[C@H](c1cn2nc(C[C@H]3C[C@@H](C(F)(F)F)CNC3=O)c(C3(C)CCOC3)nc2n1)C1CCC(F)(F)CC1` (single isomer, unassigned) [Compound 178], in that order: less than 0.1 µM and more than 1 µM.
As for `CCn1nccc1C(=O)N[C@H](c1cn2nc(C[C@H]3C[C@@H](C(F)(F)F)CNC3=O)c(C3CCOC3)nc2n1)[C@H]1CCCC(F)(F)C1` (single isomer, unassigned) [Compound 203], the IC50 at IL-17A/A and on IL-17A/F was less than 0.1 µM throughout.
For the compound `CCn1nccc1C(=O)N[C@H](c1cn2nc(CC3C[C@@H](C(F)(F)F)CNC3=O)c(N3CCO[C@@H](C)C3)nc2n1)[C@@H]1CCCC(F)(F)C1` (single isomer, unassigned) [Compound 207], the values for the IC50 on IL-17A/A and on IL-17A/F were less than 0.1 µM and 0.1 to 1 µM, respectively.
